The assay has as its target T1, dihydrofolate reductase (DHFR) (Escherichia coli, UniProt P0ABQ4, C152S/C85A).
T1 construct: gene folA
T1 sequence (P0ABQ4 1-159 C85A/C152S): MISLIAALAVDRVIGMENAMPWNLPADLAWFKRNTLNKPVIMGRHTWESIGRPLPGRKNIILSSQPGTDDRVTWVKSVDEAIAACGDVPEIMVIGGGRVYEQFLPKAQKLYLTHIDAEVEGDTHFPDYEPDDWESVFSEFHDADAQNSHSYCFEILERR
The assay is described as follows: spectrophotometric DHFR activity assay ([…] nm) with in-house purified E. coli DHFR, triplicates. The assay is classed as biochemical.

One may read the IC50 as the concentration that gives 50% inhibition. For the molecule `COc1cc(Cc2cnc(N)nc2N)cc(OC)c1OCc1cc(Cl)c(/N=N\c2c(Cl)cccc2Cl)c(Cl)c1` [TCATa], the IC50 came to 3.3 ± 2.1 nM.

For the molecule `COc1cc(Cc2cnc(N)nc2N)cc(OC)c1OCc1cc(Cl)c(/N=N/c2c(Cl)cccc2Cl)c(Cl)c1` [TCATd], the IC50 stood at 3.8 ± 1.4 nM.
